From PubChem BioAssay (NCI)
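The compound was tested at five concentrations on cells cultured in 96-well plates, with a 48-hour exposure period. The concentration for 50% growth inhibition is given as GI50. TGI: total growth inhibition.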

Legend:
Assay in all cases: NCI tumour cell line growth inhibition, 48 h; in the data active means GI50 below about 0.43 µM; inactive means the rest
COLO 205 colon = test system: COLO 205 colon
HL-60(TB) leukemia = test system: HL-60(TB) leukemia
HOP-62 NSCLC = test system: HOP-62 NSCLC
HS 578T breast = test system: HS 578T breast
NCI-H23 lung = test system: NCI-H23 lung
PC-3 prostate = test system: PC-3 prostate
SF-268 CNS = test system: SF-268 CNS
SR leukemia = test system: SR leukemia
T-47D breast = test system: T-47D breast
786-0 renal = test system: 786-0 renal

COc1cccc(N/C(C)=C2/CCOC2=O)c1
> 10 µM: TGI (COLO 205 colon) | TGI (HL-60(TB) leukemia) | TGI (HOP-62 NSCLC) | TGI (HS 578T breast) | TGI (NCI-H23 lung) | TGI (PC-3 prostate) | TGI (SF-268 CNS) | TGI (SR leukemia) | TGI (T-47D breast)

COC(=O)[C@H](CNC(=O)/C=C/c1ccc(OC(C)=O)c(OC(C)=O)c1)NC(=O)/C=C/c1ccc(OC(C)=O)c(OC(C)=O)c1
> 100 µM: TGI (786-0 renal) | TGI (COLO 205 colon) | TGI (HL-60(TB) leukemia) | TGI (HOP-62 NSCLC) | TGI (HS 578T breast) | TGI (NCI-H23 lung) | TGI (PC-3 prostate) | TGI (SR leukemia) | TGI (T-47D breast)

[N-]=[N+]=CC(=O)C1(C(=O)C=[N+]=[N-])CC1
> 100 µM: TGI (786-0 renal) | TGI (COLO 205 colon) | TGI (HL-60(TB) leukemia) | TGI (HOP-62 NSCLC) | TGI (NCI-H23 lung) | TGI (SF-268 CNS) | TGI (SR leukemia)

COc1ccc(C=Nc2ccc(-c3nc4ccccc4s3)cc2)cc1OC
> 100 µM: TGI (HS 578T breast) | TGI (SF-268 CNS) | TGI (SR leukemia)
44.3 µM: TGI (786-0 renal)
39.6 µM: TGI (COLO 205 colon)
39.2 µM: TGI (HOP-62 NSCLC)
90.6 µM: TGI (NCI-H23 lung)
81.2 µM: TGI (T-47D breast)
69.9 µM: TGI (PC-3 prostate)

NC(Cc1ccc(O)cn1)C(=O)NC(C(=O)O)c1ccccc1 (centres undefined)
> 100 µM: TGI (786-0 renal) | TGI (COLO 205 colon) | TGI (HL-60(TB) leukemia) | TGI (HOP-62 NSCLC) | TGI (HS 578T breast) | TGI (NCI-H23 lung) | TGI (PC-3 prostate) | TGI (SF-268 CNS) | TGI (SR leukemia)

CCOC(=O)/C(Br)=C1\OC(=O)c2ccccc2-c2ccccc21
> 100 µM: TGI (786-0 renal) | TGI (NCI-H23 lung) | TGI (SF-268 CNS)
40.1 µM: TGI (HL-60(TB) leukemia)
56.7 µM: TGI (SR leukemia)
49.9 µM: TGI (COLO 205 colon)
54.7 µM: TGI (HOP-62 NSCLC)

C/C=C1\CC(C(=O)OCC)CCCCCCC1=O (centres undefined)
> 100 µM: TGI (786-0 renal) | TGI (COLO 205 colon) | TGI (HL-60(TB) leukemia) | TGI (HOP-62 NSCLC) | TGI (HS 578T breast) | TGI (NCI-H23 lung) | TGI (PC-3 prostate) | TGI (SF-268 CNS) | TGI (T-47D breast)

Cc1cc(N(CCC#N)S(=O)(=O)c2ccccc2)ccc1C=Nc1cccc(C(=O)O)c1
> 100 µM: TGI (COLO 205 colon) | TGI (HL-60(TB) leukemia) | TGI (HOP-62 NSCLC) | TGI (NCI-H23 lung) | TGI (SF-268 CNS)

C1=N[C@]23C(=N[C@H](N=C2NCc2ccco2)[C@]24N=CNC2=N[C@H]3N=C4NCc2ccco2)N1
inactive: GI50 (COLO 205 colon) > 100 µM | GI50 (HL-60(TB) leukemia) > 100 µM | GI50 (HOP-62 NSCLC) > 100 µM | GI50 (HS 578T breast) 39.1 µM | GI50 (NCI-H23 lung) > 100 µM | GI50 (PC-3 prostate) > 100 µM | GI50 (SF-268 CNS) > 100 µM | GI50 (SR leukemia) > 100 µM | GI50 (T-47D breast) > 100 µM
> 100 µM: TGI (COLO 205 colon) | TGI (HL-60(TB) leukemia) | TGI (HOP-62 NSCLC) | TGI (HS 578T breast) | TGI (NCI-H23 lung) | TGI (PC-3 prostate) | TGI (SF-268 CNS) | TGI (SR leukemia) | TGI (T-47D breast)

COc1cc(C2CC(C)(N3CCOCC3)Oc3cc4c(cc32)OCO4)cc(OC)c1OC (centres undefined)
> 100 µM: TGI (HOP-62 NSCLC) | TGI (NCI-H23 lung) | TGI (PC-3 prostate) | TGI (SF-268 CNS) | TGI (SR leukemia)
> 56.2 µM: TGI (HS 578T breast)
11.5 µM: TGI (786-0 renal)

CCC(=O)OC1CCn2c1nc1c2C(=O)C(C)=C(NC(C)=O)C1=O (centres undefined)
24.1 µM: TGI (HOP-62 NSCLC)
11.6 µM: TGI (COLO 205 colon)
11.9 µM: TGI (786-0 renal)
5.66 µM: TGI (SR leukemia)
3.49 µM: TGI (NCI-H23 lung)
3.89 µM: TGI (HL-60(TB) leukemia)
3.2 µM: TGI (SF-268 CNS)

CC(C)OP(=O)(OC(C)C)C(=NCCO)NNc1ccc([N+](=O)[O-])cc1
> 100 µM: TGI (786-0 renal) | TGI (COLO 205 colon) | TGI (HL-60(TB) leukemia) | TGI (HOP-62 NSCLC) | TGI (NCI-H23 lung) | TGI (SF-268 CNS) | TGI (SR leukemia)

CCOC(=O)Cc1c(C)c2ccc(OC(C)=O)c(OC(C)=O)c2oc1=O
96.1 µM: TGI (SF-268 CNS)
> 100 µM: TGI (786-0 renal) | TGI (COLO 205 colon) | TGI (HOP-62 NSCLC) | TGI (HS 578T breast) | TGI (PC-3 prostate)
71.7 µM: TGI (NCI-H23 lung)
64.4 µM: TGI (SR leukemia)

O=C(O)c1cc2ccccc2c(Cc2c(O)c(C(=O)O)cc3ccccc23)c1O
> 100 µM: TGI (786-0 renal) | TGI (HL-60(TB) leukemia) | TGI (HOP-62 NSCLC) | TGI (HS 578T breast) | TGI (NCI-H23 lung) | TGI (PC-3 prostate) | TGI (SF-268 CNS) | TGI (SR leukemia) | TGI (T-47D breast)

Clc1ccc(Nc2ncco2)cc1Cl
> 10 µM: TGI (786-0 renal) | TGI (COLO 205 colon) | TGI (HOP-62 NSCLC) | TGI (HS 578T breast) | TGI (NCI-H23 lung) | TGI (PC-3 prostate) | TGI (SF-268 CNS) | TGI (SR leukemia) | TGI (T-47D breast)

CC1=C(C(=O)NNC(=O)Cc2ccccc2)CC(C(=O)NNC(=O)Cc2ccccc2)=C(C)N1
> 100 µM: TGI (786-0 renal) | TGI (COLO 205 colon) | TGI (HL-60(TB) leukemia) | TGI (HOP-62 NSCLC) | TGI (NCI-H23 lung) | TGI (SF-268 CNS) | TGI (T-47D breast)

CC(NC(=O)Cc1ccc(OP(=O)(OCc2ccc([N+](=O)[O-])o2)N(C)CCCCCl)cc1)c1ccc(OCC2CCCCC2)c(C(N)=O)c1 (centres undefined)
4.38 µM: TGI (SR leukemia)
6.27 µM: TGI (SF-268 CNS)
6.07 µM: TGI (HOP-62 NSCLC)
3.1 µM: TGI (COLO 205 colon)
5.12 µM: TGI (NCI-H23 lung)
10.8 µM: TGI (786-0 renal)
5.06 µM: TGI (HL-60(TB) leukemia)
3.84 µM: TGI (T-47D breast)
19.6 µM: TGI (PC-3 prostate)

O=C(NN1C(=O)C(Cl)C1c1cccc(O)c1)c1ccccc1O (centres undefined)
> 100 µM: TGI (HL-60(TB) leukemia) | TGI (NCI-H23 lung) | TGI (SF-268 CNS)

CON(C)c1nc(N)c(C#N)c(C#N)c1C#N
> 10 µM: TGI (COLO 205 colon) | TGI (HL-60(TB) leukemia) | TGI (HOP-62 NSCLC) | TGI (HS 578T breast) | TGI (NCI-H23 lung) | TGI (PC-3 prostate) | TGI (SF-268 CNS) | TGI (SR leukemia) | TGI (T-47D breast)

CN(C)c1ccc(/C=C/C(=O)c2cc(C(C)(C)C)c(O)c(C(C)(C)C)c2)cc1
8.03 µM: TGI (786-0 renal)
2.65 µM: TGI (COLO 205 colon)
> 52.1 µM: TGI (SF-268 CNS)
> 24.4 µM: TGI (HL-60(TB) leukemia)
> 100 µM: TGI (HOP-62 NSCLC) | TGI (HS 578T breast) | TGI (NCI-H23 lung) | TGI (PC-3 prostate) | TGI (T-47D breast)

CC(=O)c1ccc(N2C(=O)C3c4[nH]c5ccccc5c4C4CCC(C(C)(C)C)CC4C3C2=O)cc1 (centres undefined)
34.3 µM: TGI (786-0 renal)
36.7 µM: TGI (SF-268 CNS)
38.5 µM: TGI (HOP-62 NSCLC)
45.3 µM: TGI (NCI-H23 lung)
70.9 µM: TGI (SR leukemia)
76.9 µM: TGI (HL-60(TB) leukemia)
29.1 µM: TGI (COLO 205 colon)

Cc1ccc(S(=O)(=O)NC(=O)Nc2c(S(N)(=O)=O)cc(S(N)(=O)=O)c(Cl)c2Cl)cc1
> 100 µM: TGI (786-0 renal) | TGI (HL-60(TB) leukemia) | TGI (HS 578T breast) | TGI (NCI-H23 lung) | TGI (PC-3 prostate) | TGI (SF-268 CNS) | TGI (SR leukemia)

COc1ccc(-c2nc(-c3ccc(OC)cc3)n(-c3ccccc3)n2)cc1
> 100 µM: TGI (786-0 renal) | TGI (COLO 205 colon) | TGI (HL-60(TB) leukemia) | TGI (HOP-62 NSCLC) | TGI (HS 578T breast) | TGI (NCI-H23 lung) | TGI (PC-3 prostate) | TGI (SF-268 CNS) | TGI (T-47D breast)
